Results: PubChem BioAssay (NCI)
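How tested: cells in 96-well plates exposed to compound for 48 hours at five concentrations. The concentration for 50% growth inhibition is given as GI50. TGI: total growth inhibition.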

How the values were obtained:
Experiment in all cases: NCI anticancer screen, dose series, 48 h
SW-620 colon = system: SW-620 colon
SF-539 CNS = system: SF-539 CNS
MDA-MB-231 breast = system: MDA-MB-231 breast
HCT-15 colon = system: HCT-15 colon
CCRF-CEM leukemia = system: CCRF-CEM leukemia
NCI-H460 lung = system: NCI-H460 lung
PC-3 prostate = system: PC-3 prostate
UO-31 renal = system: UO-31 renal
NCI-H226 lung = system: NCI-H226 lung

SMILES | TGI (SW-620 colon) [µM] | TGI (SF-539 CNS) [µM] | TGI (MDA-MB-231 breast) [µM] | TGI (HCT-15 colon) [µM] | TGI (CCRF-CEM leukemia) [µM] | TGI (NCI-H460 lung) [µM] | TGI (PC-3 prostate) [µM] | TGI (UO-31 renal) [µM] | TGI (NCI-H226 lung) [µM] | GI50 (CCRF-CEM leukemia) [µM] | GI50 (SW-620 colon) [µM] | GI50 (SF-539 CNS) [µM] | GI50 (MDA-MB-231 breast) [µM] | GI50 (HCT-15 colon) [µM] | GI50 (NCI-H460 lung) [µM] | GI50 (PC-3 prostate) [µM] | GI50 (UO-31 renal) [µM] | GI50 (NCI-H226 lung) [µM]
COC1=C(C)C(=O)c2c(c(COC(N)=O)c3n2CC(OC(C)=O)C3OC(C)=O)C1=O (stereo unspecified) | 0.166 | 0.165 | 0.515 | 0.0692 | 13.8 | 0.235 | 0.402 | 0.49 | 1.39 |  |  |  |  |  |  |  |  | 
CSc1n[nH]c(N)c1C(=O)Nc1ccccc1 | > 100 | > 100 | > 100 | > 100 | > 100 | > 100 | > 100 | > 100 | > 100 |  |  |  |  |  |  |  |  | 
CN(C)CC1CCC(CN(C)C)C1=O (stereo unspecified) | 10.4 | 33.3 | 4.18 | 4.82 | > 100 | 45.6 | 4.58 | 14 | 38.8 | 0.319 |  |  |  |  |  |  |  | 
C[n+]1c(-c2ccc(/C=C/C=N\NC(=O)c3ccc(C(=O)N/N=C\C=C\c4ccc(-c5cn6ccccc6[n+]5C)cc4)cc3)cc2)cn2ccccc21 | > 100 | > 100 | > 58.8 | > 100 | > 58.2 | > 100 | > 100 | > 100 | > 100 |  |  |  |  |  |  |  |  | 
COc1cc2c(cc1Cc1c(F)cccc1Cl)nc(-c1c(F)cccc1Cl)n2Cc1c(F)cccc1Cl |  | 60.1 | > 100 | > 100 | > 100 | > 100 | > 100 | > 100 | > 100 |  |  |  |  |  |  |  |  | 
COc1ccc(CC2COc3cc(O)cc(O)c3C2=O)cc1O (stereo unspecified) | > 100 | 10.1 | > 100 | > 100 | > 100 | > 100 | > 100 | > 100 |  |  |  |  |  |  |  |  |  | 
COc1ccc(CN2C3CC2CN(c2ccc(-c4cc(OCC(C)(C)O)cn5ncc(C#N)c45)cn2)C3)cn1 | > 100 | 8.61 | > 100 | > 100 | > 100 | > 100 | > 100 | > 100 | > 100 | 3.59 | 4.49 | 2.61 | 8.04 | 37.2 | 15.9 | 16.3 | 7.32 | 1.66
CCON1CC(C(=O)OC)=C(O)C1=O | > 100 |  | > 100 | > 100 |  | > 100 | > 100 | > 100 |  |  |  |  |  |  |  |  |  | 
N#Cc1nc(NC(=O)c2ccccc2C(=O)O)c(C#N)[nH]1 | > 100 | > 100 | > 100 |  | > 100 |  | > 100 | > 100 | > 100 |  |  |  |  |  |  |  |  | 
CC(=O)OC1C(COC(=O)c2ccccc2)OC(Nc2ncc(-c3ccc(Br)cc3)s2)C(OC(=O)c2ccccc2)C1OC(=O)c1ccccc1 (stereo unspecified) | > 100 |  | > 100 |  |  | > 100 | > 100 | > 100 | > 100 |  |  |  |  |  |  |  |  | 
COc1ccc(C2c3cc4c(cc3OC(N3CCOCC3)C2C)OCO4)c(OC)c1OC (stereo unspecified) | > 100 | 27.7 |  | > 100 | 55.4 | 51.3 | 88.7 | 35.1 |  |  |  |  |  |  |  |  |  | 
COC(=O)c1cc(C#N)[nH]c1-c1cc(Br)cs1 | 40.2 | 33.3 | 51.7 | 33.2 | 39.3 | 54.5 | 40.9 | 29.5 | 49.4 |  |  |  |  |  |  |  |  | 
COc1cc(NC(C)=O)ccc1C(=O)NN1C(=O)/C(=C/c2ccco2)N=C1c1ccccc1 | > 50 | > 50 |  | > 50 | 31.1 |  | > 50 | > 50 |  |  |  |  |  |  |  |  |  | 
CC(=O)O[C@H]1CCc2c(cc(N)c3c2C(=O)C[C@]2(C)C([C@H](C)CCCC(C)C)CCC32C)C1(C)C (stereo partly specified) | > 100 | > 100 | > 100 | > 100 | > 100 | > 100 | > 100 | > 100 | > 100 |  |  |  |  |  |  |  |  | 
CC(NC(=O)N(C)C)NC(=O)N(C)C | > 10 | > 10 | > 10 | > 10 | > 10 | > 10 | > 10 | > 10 | > 10 |  |  |  |  |  |  |  |  | 
O=c1cc(N2CCCC2)[nH]c(=O)n1-c1ccccc1 | > 100 | > 100 | > 100 | > 100 | > 100 | > 100 | > 100 |  | > 100 |  |  |  |  |  |  |  |  | 
Cc1ccc(/C=C2\Cc3c(C)cc(C)cc3C2=O)c(C(=O)O)c1 | > 100 | 46.2 |  | > 100 | > 100 | > 100 | > 100 | > 100 | 71.4 |  |  |  |  |  |  |  |  | 
CC(C(=O)O)C(C)(O)C(=O)O (stereo unspecified) | > 100 | > 100 | > 100 | > 100 | > 100 | > 100 | > 100 | > 100 | > 100 |  |  |  |  |  |  |  |  | 
OCc1ccc2c(c1)CC1(Cc3ccc(/C=N/O)cc3C1)C2 (stereo unspecified) | > 100 | 11.3 | > 100 | > 45.1 | > 100 | 18.9 | > 100 | 80.9 | 71 |  |  |  |  |  |  |  |  | 
C\C(=N/N=C1/C(=C\N(C)C)C(=O)NC(=O)N1C)c1ccc(Cl)cc1 | > 100 | > 100 | > 100 | > 100 | > 100 | > 100 | > 100 | > 100 | > 100 |  |  |  |  |  |  |  |  | 
Cc1cnc2c(c1)C(=O)C1=C(C2=O)C2OC(=O)CC2OC1(C)C (stereo unspecified) | 0.768 | 0.575 | 0.35 | 0.202 | 0.151 | 2.28 | 0.812 | 1.26 | 2.31 |  |  |  |  |  |  |  |  | 
CNC(=O)CCCNC(=O)CCCC(=O)N(C)C | > 100 | > 100 | > 100 | > 100 | > 100 | > 100 | > 100 | > 100 | > 100 |  |  |  |  |  |  |  |  | 
COC(=O)C1=Nc2c(C)nn(-c3ccccc3)c2N=C(c2ccccc2)C1 | > 10 | > 10 | > 10 | > 10 |  |  | > 10 |  |  |  |  |  |  |  |  |  |  | 
